Article PMC4306130 (Scientific Reports, 2015)

Biological target: c-Met (Homo sapiens, UniProt P08581)
Experiment: radiometric protein kinase assay with recombinant human c-Met
Assay type: biochemical

c-Met, sequence (P08581 25-307): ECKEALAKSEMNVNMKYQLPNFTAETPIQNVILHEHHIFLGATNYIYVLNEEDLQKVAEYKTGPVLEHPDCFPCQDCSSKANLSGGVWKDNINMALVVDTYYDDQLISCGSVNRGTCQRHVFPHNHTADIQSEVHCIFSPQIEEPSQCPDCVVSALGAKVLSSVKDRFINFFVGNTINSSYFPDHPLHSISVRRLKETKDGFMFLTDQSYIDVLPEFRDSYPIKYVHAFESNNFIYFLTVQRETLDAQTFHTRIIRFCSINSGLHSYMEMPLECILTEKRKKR
c-Met, sequence (P08581 308-1390): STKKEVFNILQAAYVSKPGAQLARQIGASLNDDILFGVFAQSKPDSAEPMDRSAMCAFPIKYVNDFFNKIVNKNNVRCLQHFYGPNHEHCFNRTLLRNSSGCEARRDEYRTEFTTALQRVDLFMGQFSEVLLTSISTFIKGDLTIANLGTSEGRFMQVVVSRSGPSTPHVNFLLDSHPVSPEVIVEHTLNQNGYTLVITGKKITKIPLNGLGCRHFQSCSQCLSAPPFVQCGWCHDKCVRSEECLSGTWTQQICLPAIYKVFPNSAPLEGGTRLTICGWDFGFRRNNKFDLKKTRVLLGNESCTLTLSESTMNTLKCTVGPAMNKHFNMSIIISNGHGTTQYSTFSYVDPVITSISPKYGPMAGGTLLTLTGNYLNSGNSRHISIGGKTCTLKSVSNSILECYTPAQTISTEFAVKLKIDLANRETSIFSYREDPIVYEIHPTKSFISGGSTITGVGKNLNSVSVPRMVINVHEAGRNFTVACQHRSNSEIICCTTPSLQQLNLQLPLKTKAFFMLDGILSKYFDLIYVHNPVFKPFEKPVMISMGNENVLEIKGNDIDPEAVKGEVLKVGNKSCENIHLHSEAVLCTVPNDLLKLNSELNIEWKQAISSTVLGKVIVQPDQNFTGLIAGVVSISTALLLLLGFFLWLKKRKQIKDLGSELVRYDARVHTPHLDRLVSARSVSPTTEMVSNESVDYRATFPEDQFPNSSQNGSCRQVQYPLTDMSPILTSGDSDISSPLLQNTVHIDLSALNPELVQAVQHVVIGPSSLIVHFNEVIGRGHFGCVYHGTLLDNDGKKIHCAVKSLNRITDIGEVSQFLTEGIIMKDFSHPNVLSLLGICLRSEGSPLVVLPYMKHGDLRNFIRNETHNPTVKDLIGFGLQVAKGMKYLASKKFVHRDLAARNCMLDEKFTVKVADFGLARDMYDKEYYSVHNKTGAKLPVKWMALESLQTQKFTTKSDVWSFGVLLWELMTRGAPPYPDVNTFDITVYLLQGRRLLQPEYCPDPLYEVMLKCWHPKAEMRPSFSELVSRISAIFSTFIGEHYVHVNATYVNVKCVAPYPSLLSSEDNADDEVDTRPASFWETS

IC50: 5.1 ± 0.1 µM
SMILES: COc1c(C=O)c(O)cc2c1C(=O)c1ccccc1C2=O [damnacanthal, 3-hydroxy-1-methoxy-anthraquinone-2-aldehyde]
